Non-standard residues stand in square brackets, D forms with d. No end group written: not given here. *: point of attachment. FITC = O=C1OC2(c3ccc(O)cc3Oc3cc(O)ccc32)c2ccc(NC(=S)*)cc21; Ahx = NCCCCCC(=O)O
How the values were obtained:
[1] = system: cytoplasm and nuclear protein of HT-1080 cells; experiment: Analytical test of cytoplasm and nuclear protein bound by Example 2 (immunoprecipitation, shotgun analysis); format: binding, human; settings: 50 μg/mL, 5 days
Experimental: The HT-1080 cells (20 million cells) were cultured in 4 mL of serum-supplemented medium (α-MEM+10% FBS) to be 50 μg/mL at the final concentration of Example 2 for 5 days at 37° C. and 5% CO2 in the cell incubator. The cells were washed with PBS and collected. The protein was individually harvested from the cytoplasm and the nucleus using NE-PER Nuclear and Cytoplasmic Extraction Reagents (PIERCE). 80 μL of A/G agarose was added to 1 mg of each protein from the cytoplasm and the nucleus and stirred at 4° C. for 1 hour, the samples were pretreated. 10 μg of IgG Fraction Monoclonal Mouse Anti-Fluorescein (FITC) (Jackson ImmunoResearch) was added to the pretreated solution (1 mg/600 μL) and shaken at 4° C. overnight. Subsequently, 20 μL of A/G agarose was added to the mixtures and shaken at 4° C. for 2 hours. After the mixtures were washed three times with a wash buffer, 50 μL of elution buffer (Thermo Fisher Scientific) was added to the A/G agarose. […]
Proteins were identified from the cytoplasm or nucleus and listed with the accession number, protein name, identified number of detected peptides, identified number of unique peptides, confidence score and amount of cytoplasmic protein or nuclear protein(fmol), except for the antibodies used in immunoprecipitation and Example 2 from the detected proteins.

HT-1080 cells = experiment: Test on nuclear transport (confocal, DAPI); format: cell-based, human; settings: 50 μg/mL; for intracellular localization: HT-1080 cells
Description: Human fibrosarcoma-derived HT-1080 cells (HT-1080 cells, JCRB cell bank) were used as cancer cells in the test for monitoring changes in mitochondrial membrane potential. HT-1080 cells, human osteosarcoma cell line Hos cells (Hos cells, JCRB cell bank), human histiocytic lymphoma/macrophage U937 cells (U937 cells, JCRB cell bank), human myeloid leukemia HL-60 cells (HL-60 cells, JCRB cell bank), acute monocytic leukemia THP-1 cells (THP-1 cells, JCRB cell bank), human alveolar basal epithelial adenocarcinoma cell A549 cells (A549 cells, Cell Resource Center for Biomedical Research, Institute of Development, Aging and Cancer, Tohoku University), human pancreatic carcinoma cells (MIA Paca 2 cells, Cell Resource Center for Biomedical Research, Institute of Development, Aging and Cancer, Tohoku University) and well differentiated human liver carcinoma-derived cell line HuH7 cells (HuH7 cells, Cell Resource Center for Biomedical Research, Institute of Development, Aging and Cancer, Tohoku University) were used as cancer cells in an in vitro cell-death induction test of cancer cells and a nuclear transport test of Example 2. Normal human gingival fibroblast cells Gin-1 (Gin-1 cells, DS Pharma Biomedical) were used as a control. The above-described cells were each inoculated into a 96-well culture plate (Falcon) at 5,000 cells/[…] and subjected to the following tests.
The cells were cultured in 200 μL of serum-supplemented medium (α-MEM+10% FBS) to be 50 μg/mL at the final concentration of Example 2 for 3 or 9 days. The cell-death was not detected in the culture on day 3. On the contrary, since the cell-death was detected in the culture on day 9, the day 9 culture as described above was used for the tests. The above each cell was separated and transferred to a Cellview glass bottom dish (35×10 mm) (Greiner). The cells on day 3 were fixed with 10% formalin-ethanol and then dyed with DAPI. The cells on day 9 were dyed with DAPI without fixation.
FIG. 4 is the photographs of Example 2 (green), DAPI (blue), overlay images of Example 2 (green) and DAPI (blue) and differential interference image on the HT-1080 cells on day 3 or 9.

HT-1080 cells tumor = experiment: Growth-inhibition and apoptosis of cancer cells in tumor-bearing mice; format: in vivo, BALB/c nude mouse; settings: 10 mg/kg intraperitoneally every 3 days
Experimental: HT-1080 cells (1×10^7 cells/200 μL) were subcutaneously implanted into the back of 5 week-old BALB/c nude mouse (CHARLES RIVER LABORATORIES JAPAN, INC.). A tumor after the implantation was confirmed to reach 30 to 60 mm^3, and then they were subjected to the following tests.
Example 2 was dissolved in the sterile water and adjusted to be 200 μg/200 μL by the addition of 2-time concentrated α-MEM (not containing glutamine or an antibiotic). It was intraperitoneally administered to tumor-bearing mice at 10 mg/kg every 3 days. In the control administration group, 200 μL of 1-time concentrated α-MEM was intraperitoneally administered to tumor-bearing mice every 3 days. The mice were weighed on DRETEC weighing scale (DRETEC CO., Ltd., Japan) and the tumor size (estimation volume (shortest diameter×longer diameter×height×pi/6 mm^3)) was measured with a vernier caliper (maximum: 150 mm, minimum: 0.05 mm) (MITUTOYO, Japan) every 3 days.
FIG. 6 is a graph illustrating the transitions of tumor size in the Example 2 and control administration group (N=6). The vertical axis represents the average value of tumor size±standard deviation (SD), and the horizontal axis represents the days after administration. […] In the control administration group, the tumor size on day 24 was more than 1,500 mm^3. On the other hand, the effect of suppressing tumor growth was confirmed as the tumor size was about 600 mm^3 in the Example 2 administration.

Substance: Example 2: peptide of SEQ ID NO: 1 labeled with FITC, bound via an Ahx linker at the N-terminus ({FITC}-[Ahx]KDNRGNLLQCVCTGNGRGEWKC; cysteine pairing not given here)
- nuclear transfer proved biochemically [1]: transfer to the inside of the nucleus
- proteins bound (identified from cytoplasm or nucleus) [1]: linker histones H1-3, core histones (H2A, H2B, H3-2 and H4), 22 types of 40S ribosomal proteins and 28 types of 60S ribosomal proteins
- cell-death in the culture (HT-1080 cells; day 3): not detected
- cell-death in the culture (HT-1080 cells; day 9): detected
- intracellular localization (HT-1080 cells; day 3): present at a cytoplasm
- intracellular localization (HT-1080 cells; day 9): transferred to a nucleus and bound to a chromosome DNA
- growth inhibition of the tumor compared with the control administration group (HT-1080 cells tumor; between days 12 and 24): significant difference at a level of 1%
- tumor size (HT-1080 cells tumor; day 24, N=6): about 600 mm^3
- tumor shrinkage (HT-1080 cells tumor; to the 33th day): tendency to shrink the tumor was confirmed

Reference: patent US12472226B2, “Cell-permeable peptide” (priority 2019, dated 2025)
